Drawing on publication PMC4564614, “Purification and Characterization of Asparaginase from Phaseolus vulgaris Seeds” (Evidence-based Complementary and Alternative Medicine : eCAM, 2015), this text covers Km for one compound.

In this assay the test system is T1, L-asparaginase I (asparaginase I).
T1 construct: gene ASPG1
The settings on record: 50 mM Tris-HCl pH 8.0, 50 mM KCl, 37 °C (standard assay); L-asparagine 2-20 mM.

What is called Km is the concentration of substrate that gives half-maximal velocity. For the compound `NC(=O)C[C@H](N)C(=O)O` [L-asparagine], the Km worked out at 6.72 mM.
